# Measurements from ChEMBL document CHEMBL2440117, “Improved inhibitory activities against tumor-cell migration and invasion by 15-benzylidene substitution derivatives of andrographolide” (Bioorg Med Chem Lett, 2013).
# Active and inactive are the calls of the source. The calls are words filed in the database; no cut-off is given here.
# What was measured:
# PC-3 [1] = test: Cytotoxicity against human PC3 cells assessed as growth inhibition at 10 uM after 48 hrs by MTT assay relative to control; type: functional; conditions: for inhibition of growth at 10 µM: PC-3, 48 h, read-out: GI
# PC-3 [2] = test: Antimigratory activity against human PC3 cells at 10 uM after 12 to 48 hrs by wound-healing assay relative to control; type: functional
# SGC-7901 [3] = test: Cytotoxicity against human SGC7901 cells assessed as growth inhibition at 10 uM after 48 hrs by MTT assay relative to control; type: functional, cell-based
# SGC-7901 [4] = test: Antimigratory activity against human SGC7901 cells at 10 uM after 12 to 48 hrs by wound-healing assay relative to control; type: functional
# 5637 [5] = test: Cytotoxicity against human 5637 cells assessed as growth inhibition at 10 uM after 48 hrs by MTT assay relative to control; type: functional, cell-based
# 5637 [6] = test: Antimigratory activity against human 5637 cells at 10 uM after 12 to 48 hrs by wound-healing assay relative to control; type: functional
# SGC-7901 [7] = test: Antimigratory activity against human SGC7901 cells after 12 to 48 hrs by wound-healing assay; type: functional, cell-based
# 5637 [8] = test: Cytotoxicity against human 5637 cells assessed as growth inhibition at 5 uM after 48 hrs by MTT assay relative to control; type: functional; conditions: Homo sapiens, 5637, 48 h; read-out: GI
# 5637 [9] = test: Antimigratory activity against human 5637 cells at 5 uM after 12 to 48 hrs by wound-healing assay relative to control; type: functional
# HT-29 [10] = test: Antimigratory activity against human HT-29 cells after 12 to 48 hrs by wound-healing assay; type: functional, cell-based
# HT-29 [11] = test: Cytotoxicity against human HT-29 cells assessed as growth inhibition at 10 uM after 48 hrs by MTT assay; type: functional, cell-based
# ECa-109 [12] = test: Cytotoxicity against human EC109 cells assessed as growth inhibition at 10 uM after 48 hrs by MTT assay; type: functional, cell-based
# [13] = Antimigratory activity against human EC109 cells at 5 uM after 12 to 48 hrs by wound-healing assay relative to control; type: functional; conditions: ECa-109
# A549 [14] = test: Cytotoxicity against human A549 cells assessed as growth inhibition at 10 uM after 48 hrs by MTT assay; type: functional, cell-based
# A549 [15] = test: Antimigratory activity against human A549 cells at 5 uM after 12 to 48 hrs by wound-healing assay relative to control; type: functional
# PC-3 [16] = test: Antimigratory activity against human PC3 cells after 12 to 48 hrs by wound-healing assay; type: functional, cell-based
# SGC-7901 [17] = test: Downregulation of MMP-2 protein expression in human SGC7901 cells at 10 uM after 72 hrs by microscopic analysis; type: functional, cell-based
# SGC-7901 [18] = test: Downregulation of MMP-9 protein expression in human SGC7901 cells at 2.5 to 10 uM after 72 hrs by microscopic analysis; type: functional, cell-based
# SGC-7901 [19] = test: Downregulation of MMP-7 protein expression in human SGC7901 cells at 2.5 to 10 uM after 72 hrs by microscopic analysis; type: functional, cell-based
# SGC-7901 [20] = test: Downregulation of MMP-7 mRNA expression in human SGC7901 cells at 1.25 to 10 uM after 48 hrs by semi-quantitative RT-PCR analysis; type: functional, cell-based
# SGC-7901 [21] = test: Downregulation of MMP-9 mRNA expression in human SGC7901 cells at 1.25 to 2.5 uM after 48 hrs by semi-quantitative RT-PCR analysis; type: functional, cell-based
# SGC-7901 [22] = test: Downregulation of MMP-2 mRNA expression in human SGC7901 cells at 1.25 uM after 48 hrs by semi-quantitative RT-PCR analysis; type: functional, cell-based
# SGC-7901 [23] = test: Antiinvasive activity against human SGC7901 cells after 24 hrs by matrigel invasion assay; type: functional, cell-based; conditions: SGC-7901, 24 h
# HT-29 [24] = test: Antimigratory activity against human HT-29 cells at 10 uM after 12 to 48 hrs by wound-healing assay relative to control; type: functional
# [25] = (§1) Antimigratory activity against human EC109 cells at 10 uM after 12 to 48 hrs by wound-healing assay relative to control; type: functional; conditions: ECa-109
# A549 [26] = test: Antimigratory activity against human A549 cells at 10 uM after 12 to 48 hrs by wound-healing assay relative to control; type: functional
# SGC-7901 [27] = test: Downregulation of MMP-9 mRNA expression in human SGC7901 cells at 10 uM after 48 hrs by semi-quantitative RT-PCR analysis; type: functional, cell-based
# SGC-7901 [28] = test: Effect on MMP-2 mRNA expression in human SGC7901 cells at 10 uM after 48 hrs by semi-quantitative RT-PCR analysis; type: functional, cell-based
# SGC-7901 [29] = test: Downregulation of MMP-7 mRNA expression in human SGC7901 cells after 48 hrs by semi-quantitative RT-PCR analysis; type: functional, cell-based
# SGC-7901 [30] = test: Antiinvasive activity against human SGC7901 cells at 5 to 10 uM after 24 hrs by matrigel invasion assay relative to control; type: functional, cell-based
# SGC-7901 [31] = test: Antiinvasive activity against human SGC7901 cells at 10 uM after 24 hrs by matrigel invasion assay relative to control; type: functional; conditions: SGC-7901, 24 h
# ECa-109 [32] = test: as §1; type: functional
# 5637 [33] = test: Antimigratory activity against human 5637 cells at 2.5 uM after 12 to 48 hrs by wound-healing assay; type: functional, cell-based
Compound,growth inhibition (GI) (PC-3 [1]),inhibition (PC-3 [2]),growth inhibition (GI) (SGC-7901 [3]),inhibition (SGC-7901 [4]),growth inhibition (GI) 5637 [5],inhibition at 10 µM 5637 [6] [%],inhibition of growth at 5 µM 5637 [8] [%],inhibition at 5 µM 5637 [9] [%],growth inhibition (GI) (HT-29 [11]),growth inhibition (GI) (ECa-109 [12]),growth inhibition (GI) (A549 [14]),other results
C=C1CC[C@@H]2[C@](C)(COC(=O)c3cccnc3)[C@H](OC(=O)c3cccnc3)CC[C@@]2(C)[C@@H]1/C=C/C1=CCOC1=O,inactive,inactive,inactive,inactive,inactive,31.7,–,–,–,–,–,–
C=C1CC[C@@H]2[C@](C)(CO)[C@H](O)CC[C@@]2(C)[C@@H]1/C=C/C1=CC(=C/c2ccc(Br)cc2)/OC1=O,–,–,inactive,–,–,–,33.6,27.9,–,–,–,inhibition of growth at 10 µM (PC-3 [1]): 40.2%; inhibition at 10 µM (PC-3 [2]): 83.8%; IC50 (SGC-7901 [7]): 8.6 µM
C=C1CC[C@@H]2[C@](C)(COC(=O)CCC(=O)O)[C@H](OC(=O)CCC(=O)O)CC[C@@]2(C)[C@@H]1/C=C/C1=CCOC1=O,inactive,inactive,inactive,inactive,inactive,–,–,–,–,–,–,inhibition 5637 [6]: inactive
C=C1CC[C@@H]2[C@](C)(CO)[C@H](O)CC[C@@]2(C)[C@@H]1/C=C/C1=CC(=C/c2ccccc2)/OC1=O,inactive,–,inactive,–,inactive,44.8,–,–,inactive,inactive,inactive,IC50 (HT-29 [10]): 48.4 µM; inhibition at 5 µM [13]: 45.3%; inhibition at 5 µM (A549 [15]): 45.1%; IC50 (PC-3 [16]): 13.2 µM; inhibition at 10 µM (SGC-7901 [4]): 30.3%
C=C1CC[C@@H]2[C@](C)(CO)[C@H](O)CC[C@@]2(C)[C@@H]1/C=C/C1=CCOC1=O,inactive,inactive,inactive,inactive,inactive,44.7,–,–,–,–,–,–
C=C1CC[C@@H]2[C@](C)(CO)[C@H](O)CC[C@@]2(C)[C@@H]1/C=C/C1=CC(=C/c2ccc(Cl)cc2)/OC1=O,–,–,inactive,–,–,–,25.3,16.4,inactive,inactive,inactive,Activity (SGC-7901 [17]): Active; Activity (SGC-7901 [18]): Active; Activity (SGC-7901 [19]): Active; Activity (SGC-7901 [20]): Active; Activity (SGC-7901 [21]): Active; Activity (SGC-7901 [22]): Active; IC50 (SGC-7901 [23]): 4.6 µM; inhibition at 10 µM (HT-29 [24]): 48.1%; inhibition at 10 µM [25]: 40.7%; inhibition at 10 µM (A549 [26]): 41.4%; inhibition of growth at 10 µM (PC-3 [1]): 11.3%; inhibition at 10 µM (PC-3 [2]): 58.5%; IC50 (SGC-7901 [7]): 4.3 µM
C=C1CC[C@@H]2[C@](C)(CO)[C@H](O)CC[C@@]2(C)[C@@H]1C/C=C1/C(=O)OC[C@H]1O [ANDROGRAPHOLIDE],inactive,inactive,inactive,–,–,–,44,34.5,inactive,inactive,inactive,Activity (SGC-7901 [27]): Active; Activity (SGC-7901 [28]): inactive; Activity (SGC-7901 [29]): Dose-dependent effect; inhibition (SGC-7901 [30]): Active; inhibition at 10 µM (SGC-7901 [31]): 17.7%; inhibition (HT-29 [24]): inactive; inhibition (ECa-109 [32]): inactive; inhibition at 5 µM (A549 [15]): 28.6%; inhibition at 10 µM (SGC-7901 [4]): 20.8%; inhibition 5637 [33]: inactive
